# From PMC5357639 (Frontiers in Chemistry, 2017)
# Entries after “also recorded” stand apart in the source; their conditions may differ. Where two headings read alike, the source gives them in different places. Where a SMILES comes first, the peptide text is derived from it. The star is where a group is joined. Orn(α-tetramethylguanidino) = CN(C)C(=N[C@@H](CCCN)C(=O)*)N(C)C
# Legend:
# [1] = test system: E. coli ATCC 25922; conditions: ref Czihal et al., 2012, cited from earlier work
# From the text: Antimicrobial peptides (AMPs) are considered as promising alternatives to common antibiotics that threateningly lose their therapeutic potentials against multidrug-resistant pathogens (Fox, [2013]; Wang et al., [2015]). In contrast to approved therapeutic peptide hormones, antimicrobial peptides have to be administered at much higher doses, which may amplify general drawbacks of peptide therapeutics. […] Api137 appeared more efficient in this septicemia model due to the better scores obtained at ... || Apidaecin analogs Api88 and Api137 are similarly active against Gram-negative bacteria with a tendency of higher activity of Api88 against K. pneumoniae (Czihal et al., [2012]; Berthold et al., [2013]). However, Api88 carries a C-terminal amide that is responsible for its very fast proteolytic cleavage in serum, the supernatant obtained after complete coagulation and centrifugation of blood. The in vitro serum stability assay, which is an important in vitro criterion to select therapeutic peptides for systemic applications, yielded very short half-life times of 5 min for Api88, which indicate ...
# [2] = test system: E. coli ATCC 25922; experiment: Systemic septicemia infection mouse model (lethal intraperitoneal E. coli infection); format: in vivo, NMRI mice
# Experimental: (§1) The acute toxicity of Api137 was studied by administering doses of 20, 40, 80, and 120 mg/kg intraperitoneally (i.p.) four times daily (0, 3, 7, and 24 h) into female NMRI mice (24–32 g, ~7 weeks old). For in vivo efficacy, female NMRI mice (high dose experiment: 24–27.1 g, 6 weeks; low dose experiment: 26.8–30.3 g, 7 weeks) were infected intraperitoneal with E. coli ATCC 25922, as described before (Czihal et al., [2012]; Knappe et al., [2012]). Briefly, each mouse was infected with 9 × 10^5 bacteria in the presence of 2.5% (w/v) mucin (0.3 mL in total). Mucin restricts acute macrophage activation in the intraperitoneal space and promotes establishment of a reproducible infection (Frimodt-Møller et al., [1999]). Mice were observed three times daily for their health status for a total of 5 days post-infection and weighed 1 day before and 1 and 5 days after infection. In accordance with the guidelines of the Animal Care and Usage Committee of the Landesdirektion Leipzig, moribund mice were euthanized.
# Apidaecin Api137 (high dose experiment: 2.5 and 1.25 mg/kg body weight; low dose experiment: 0.6 and 0.3 mg/kg body weight) was administered intraperitoneal (0.3 mL) in seven mice per group three times post-infection (1, 4, and 8 h) as antibacterial therapy. Each experiment included seven mice receiving ciprofloxacin (40 mg/kg body weight) and four mice receiving only the vehicle (5% glucose in water, w/v) as positive and negative controls, respectively.
# [3] = Acute toxicity, intraperitoneal administration; format: in vivo, NMRI mice
# Experimental: as §1
# [4] = Peptide recovery in spiked blood and organ homogenates; format: in vitro ADME, NMRI mice; conditions: LC-MS MRM, mean n = 3
# Experimental: plasma samples and organ homogenates relative to equally concentrated peptide solutions in pure w ater. Concentrations of samples below the LOQ but still detectable were set to the value of the LOD, whereas signals with peak hei ghts below the LOD were set to 0 µg/m L.
# Method M3: Recovery rates in plasma and organ homogenates
# Li -heparin blood samples obtained from untreated NMRI mice were spiked with Api88 or Api137 (final concentrations: 2.5 or 10 µ g/ m L), incubated (10 min, RT), and centrifuged (2,000x g, 3 min, RT) to obtain plasma. […]
# 500 µ L, 0.2 or 2 µg/m L, l iver: 500 µ L, 1 or 2.5 µ g/m L, kidne ys: 500 µ L, 20 or 60 µg/m L). […] Recoveries were calculated b y assumin g a total blood (plasma) volume of 75 (25) m L per k g mouse weight 3 and that the measured organ weight (in g) corresponds to the organ volume (in m L). […]
# Apidaecin peptides were selectively and sensitively quantified based on the methods established for oncocins Onc72 and Onc112 (Sch midt R. et al J AC 2016). […]
# Table S12. Recover y rates of Api88 and Api137 determined in plasma and organ homogenates (n = 3) collected from untreated NMRI mice. […]
# 500 µ L, 1 or 2.5 µg/m L, kidneys: 500 µ L, 20 o r 60 µg/m L) were added p rior to homogenization and centrifugation. […] The total peptide amount in mice was calculated from the recover y rates shown […]
SMILES,Survival ([1]; 2.5 and 1.25 mg/kg i.p.),Dose rescuing all mice ([1]; same infection model),"Survival ([2]; 0.3 mg/kg i.p. three times post-infection (1, 4, 8 h), n = 7)","Survival ([2]; 0.6 mg/kg (and higher) i.p. three times post-infection (1, 4, 8 h), n = 7, 5 days observation)",Dose rescuing all mice ([2]; i.p. three times post-infection),"ED50 ([2]; i.p. three times post-infection (1, 4, 8 h), approximate)","Adverse side effects ([3]; 120 mg/kg per injection i.p. four times (0, 3, 7, 24 h))","Survival ([3]; 120 mg/kg per injection i.p. four times, observation period 5 days)","Adverse side effects ([3]; 20, 40 and 80 mg/kg per injection i.p. four times (0, 3, 7, 24 h), seven animals per dose group)","Recovery rate, Kidney, low concentration ([4]; peptide 20 µg/mL in 500 µL PBS with protease inhibitor added prior to homogenization)","Recovery rate, Kidney, high concentration ([4]; peptide 60 µg/mL in 500 µL PBS with protease inhibitor added prior to homogenization)"
CC[C@H](C)[C@H](NC(=O)[C@H](Cc1ccc(O)cc1)NC(=O)[C@@H](NC(=O)[C@@H]1CCCN1C(=O)[C@H](CCCNC(=N)N)NC(=O)[C@H](CC(N)=O)NC(=O)[C@H](CC(N)=O)NC(=O)[C@H](CCCN)N=C(N(C)C)N(C)C)C(C)C)C(=O)N1CCC[C@H]1C(=O)N[C@@H](CCCNC(=N)N)C(=O)N1CCC[C@H]1C(=O)N[C@@H](CCCNC(=N)N)C(=O)N1CCC[C@H]1C(=O)N1CCC[C@H]1C(=O)N[C@@H](Cc1c[nH]cn1)C(=O)N1CCC[C@H]1C(=O)N[C@@H](CCCNC(=N)N)C(=O)N[C@@H](CC(C)C)C(N)=O [Api88] ({Orn(α-tetramethylguanidino)}-NNRPVYIPRPRPPHPRL-NH2),rescued all NMRI mice,1.25 mg/kg,–,–,–,–,–,–,–,–,–
CC[C@H](C)[C@H](NC(=O)[C@H](Cc1ccc(O)cc1)NC(=O)[C@@H](NC(=O)[C@@H]1CCCN1C(=O)[C@H](CCCNC(=N)N)NC(=O)[C@H](CC(N)=O)NC(=O)[C@H](CC(N)=O)NC(=O)[C@H](CCCN)N=C(N(C)C)N(C)C)C(C)C)C(=O)N1CCC[C@H]1C(=O)N[C@@H](CCCNC(=N)N)C(=O)N1CCC[C@H]1C(=O)N[C@@H](CCCNC(=N)N)C(=O)N1CCC[C@H]1C(=O)N1CCC[C@H]1C(=O)N[C@@H](Cc1c[nH]cn1)C(=O)N1CCC[C@H]1C(=O)N[C@@H](CCCNC(=N)N)C(=O)N[C@@H](CC(C)C)C(=O)O [Api137] ({Orn(α-tetramethylguanidino)}-NNRPVYIPRPRPPHPRL-OH),–,–,four out of seven mice,rescued all NMRI mice; also recorded: rescuing all animals,0.6 mg/kg,~0.3 mg/kg,signs of discomfort in some animals and decreased mobility for up to 20 min after administration,all mice survived,none of the seven animals per dose group showed any signs of adverse side effects,3.5 ± 0.4%,2.7 ± 0.7%
